# Laboratory results as given in patent publication US11104647B2, “Multi-functional, stimuli-responsive materials, methods of preparation, methods of use, and uses thereof” (ADA Foundation, priority 2016, dated 2021).
# How the values were obtained:
# S. mutans = test: Minimum bactericidal concentration (MBC) determination by agar colony formation; format: cell-based, Streptococcus mutans (S. mutans, UA159); settings: for MBC: Streptococcus mutans, 0.75 h, 45 min treatment
# Experimental: (§1) Azo-QPS-C16 was effective on both […] bacteria. The ability of bacteria to proliferate after exposure to Azo-QPS-C16 was characterized by adding growth medium and measuring the optical density (OD) at 600 nm every 15 minutes in pH 4.1, 5.8, and 7.9 buffer. […] However, exposure at pH 7.9 required a much higher concentration (40 μg/mL) to inhibit cell growth. […] The pH dependence of bactericidal activity of Azo-QPS-C16 in terms of minimum bactericidal concentration (MBC) was evaluated by inoculating cultures onto a Lysogeny Broth (LB) agar plate after treating the cells with a twofold dilution series of Azo-QPS-C16.
# (§2) Bacterial strains and growth conditions. Streptococcus mutans (S. mutans, UA159) and Escherichia coli (E. coli, K12) were purchased from ATCC (American Type Culture Collection, Manassas, Va., USA). Todd Hewitt Broth (THB), and Lysogeny Broth (LB) powder and agar were purchased from BD (Becton, Dickinson and Company, Franklin Lakes, N.J., USA). Planktonic cultures were inoculated from 25% (by volume) glycerol frozen stocks stored at −80° C. E. coli cultures were grown in LB at 37° C. in a shaker-incubator. S. mutans cultures were grown in THB at 37° C. with 5% (by volume) CO2 overnight.
# (§3) Bacterial growth curves. Overnight cultures of E. coli and S. mutans were diluted directly into buffers with different pH values (100 mmol/L, pH 4.1 sodium acetate buffer, pH 5.8 sodium phosphate buffer, and pH 7.9 sodium phosphate buffer) to an optical density at 600 nm (OD600) of approximately 0.001.
# (§4) In a 96-well plate, 2 μL of Azo-QPS-C16 at various concentrations in dimethyl sulfoxide (DMSO) were added to 98 μL of bacteria suspension per well for a final concentration ranging from a 2-fold dilution series between 40 to 1.25 μg/mL of Azo-QPS-C16. After 45 minutes of treatment at room temperature, 10 μL from each well was transferred to a new 96-well plate already containing 100 μL growth media per well to measure the growth curves. E. coli were cultured at 37° C., and the OD600 of each well was measured by a Tecan Spark microplate reader (Männedorf, Switzerland) every 15 minutes for up to 19 hours, with 30 seconds shaking before each measurement. S. mutans were grown at 37° C. with 5% CO2, and the OD600 of each well was measured periodically using a Molecular Devices (Sunnyvale, Calif.) SpectraMax M5 microplate reader. All experiments were conducted in triplicate and repeated at least three times on different days.
# (§5) Minimum bactericidal concentration (MBC) determination. MBC values were determined by agar colony formation. […] 5 μL of the suspended cells from each well were spotted onto an agar plate and incubated for 48 hours to allow colony formation, and the presence or absence of bacterial growth was determined by naked eye. […]
# Solubility in water = format: physicochemical
# pKa = format: physicochemical
# [1] = Dynamic light scattering (DLS) of pH-dependent assembly; format: physicochemical
# Experimental: Particles with an average hydrodynamic diameter of 51±19 nm formed in mildly basic conditions, occurring simultaneously with the appearance of the absorbance peak at 554 nm. […] One cycle corresponds to the addition of a base and an acid. In base and acid, respectively, the absorbance at 554 nm increased and then decreased, and the particles formed and disassembled.
# Dynamic light scattering (DLS) was performed using a Nicomp 380 ZLS DLS system (Particle Sizing Systems Inc., Santa Barbara, Calif.). Samples were contained in disposable glass culture tubes. Prior to sample loading, the tubes were blown with nitrogen gas and filled with 0.4 mL of a dye sample. The tubes were sealed using parafilm and then centrifuged at 14,000 rpm (19,000 g) for 5 minutes to separate larger particles. Samples were placed in the instrument and allowed to attain thermal equilibrium. An autocorrelation function was acquired for 3 minutes at 173° scattering angle. A Laplace inversion-based Nicomp routine was used to find the distribution of decay rates. The decay rates are linked to the effective sphere hydrodynamic diameters by the appropriate equations. The size distribution is reported as a discrete set of diameter bins and corresponding intensity weighted fractions as probabilities assigned to diameter bins.
# E. coli [2] = test: Minimum bactericidal concentration (MBC) determination by agar colony formation; format: cell-based, Escherichia coli (E. coli, K12); settings: for MBC: Escherichia coli, 0.75 h, 45 min treatment
# Experimental: as §1, §2, §3, §4, §5
# E. coli [3] = test: Bacterial growth curves (OD600) after exposure in buffer; format: cell-based, Escherichia coli (E. coli, K12)
# Experimental: as §1
# Bacterial strains and growth conditions. […]
# as §4, with “After 45 minutes of treatment at room temperature, 10 μL from each well was transferred to a new 96-well plate already containing 100 μL growth media per well to measure the growth curves.” left out, “All experiments were conducted in triplicate and repeated at least three times on different days.” left out
smiles,measurement,setting,value
"C=C(C)C(=O)Oc1ccc(/N=N/c2cc[n+](CCCCCCCCCCCCCCCC)cc2)cc1.[Br-] [Azo-QPS-C16, (E)-1-hexadecyl-4-((4-(methacryloyloxy)phenyl)diazenyl)-pyridinium bromide]",MBC,S. mutans; pH 4.1 buffer,1.25 µg/mL
same,MBC,S. mutans; pH 5.8 buffer,5 µg/mL
same,MBC,S. mutans; pH 7.9 buffer,10 µg/mL
same,"Difference in MBC, acidic vs mildly basic conditions (pH 4.1 vs pH 7.9)",S. mutans; more effective in acidic conditions,8 fold
same,Solubility in water,Solubility in water,limited solubility in water
same,pKa,pKa,5.3
same,Average hydrodynamic diameter of particles,[1]; mildly basic conditions,51±19 nm
same,Particle formation,[1]; pH 4.1 buffer,No particles were found
same,MBC,E. coli [2]; pH 4.1 buffer,2.5 µg/mL
same,MBC,E. coli [2]; pH 5.8 buffer,10 µg/mL
same,MBC,E. coli [2]; pH 7.9 buffer,40 µg/mL
same,Difference in MBC between pH 4.1 and pH 7.9,E. coli [2]; more effective at pH 4.1,16 fold
same,Concentration that fully inhibited E. coli growth,"E. coli [3]; exposure at pH 4.1, growth followed up to 19 hours",2.5 µg/mL
same,Concentration required to inhibit cell growth,E. coli [3]; exposure at pH 7.9,40 µg/mL
